Assays:
CCK-B receptor = molecular target: T1, CCK-B receptor (Cavia porcellus, UniProt H0VZC5); experiment: CCK-B receptor binding test ([3H]CCK-B, guinea pig cerebral cortex); conditions: [3H]CCK-B 1.0 nM, guinea pig cerebral cortex membranes, 25° C., 2 hours; read-out: binding inhibition constant (Ki value)
T1 construct: the homogenate was provided as a receptor sample; from tissue; host or cells: guinea pig cerebral cortex membrane homogenate
T1 sequence (H0VZC5 1-426): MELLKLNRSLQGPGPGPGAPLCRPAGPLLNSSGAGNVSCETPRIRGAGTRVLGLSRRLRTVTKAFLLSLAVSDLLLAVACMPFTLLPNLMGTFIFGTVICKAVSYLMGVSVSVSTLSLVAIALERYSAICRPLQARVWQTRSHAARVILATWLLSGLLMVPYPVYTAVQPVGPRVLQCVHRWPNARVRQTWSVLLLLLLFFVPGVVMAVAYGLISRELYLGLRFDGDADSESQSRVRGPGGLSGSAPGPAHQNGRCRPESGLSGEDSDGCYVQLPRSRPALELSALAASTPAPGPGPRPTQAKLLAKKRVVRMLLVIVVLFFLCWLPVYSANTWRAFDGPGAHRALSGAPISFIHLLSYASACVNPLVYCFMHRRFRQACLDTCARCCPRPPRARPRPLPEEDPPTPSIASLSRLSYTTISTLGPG
Experimental: <CCK-B Receptor Binding Test>
From a male Hartley strain guinea pig, the cerebral cortex was removed. After the cerebral cortex was homogenized with 50 mM tris-HCl buffer (pH 7.4) in an amount 50 times as much as the weight of the cerebral cortex, the homogenate was centrifuged under 50,000 g for 10 minutes. With respect to the resulting pellet, addition of the same buffer in the same amount and centrifugation were repeated twice. […]
As a binding experiment, a [^3H]CCK-B solution of a final concentration of 1.0 nM (50 μL) and the receptor sample (protein content: 800 μg/tube) (900 μL) were added to the solvent, the CCK-B solution of a final concentration of 1.0 μM or a test compound solution (50 μL), followed by a reaction at 25° C. for 2 hours. […] ACS-II scintillator was added to the filter and, after the filter was left over for 24 hours, the radioactivity concentration on the filter was measured by a liquid scintillation counter. A binding in the presence of CCK-B (1 μM) was recorded as a non-specific binding, while a value obtained by subtracting the non-specific binding from a full binding, which had been obtained using the solvent instead of CCK-B, was recorded as a specific binding. From the specific binding of [^3H]CCK-B, the binding inhibition constant (Ki value) of the compound was calculated.

[1] = test system: pentagastrin-stimulated acid secretion; experiment: Inhibition test on pentagastrin-stimulated acid secretion in rats; type: in vivo, rat; conditions: SD rats, acid output 1st to 4th hour after administration
Experimental: <Inhibition Test on Pentagastrin-stimulated Acid Secretion in Rats>
Male Sprague-Dawley (SD) strain rats were used. Under anesthesia with ethyl ether, operations were performed on each rat to ligate the gastric antrum and also to arrange an intraduodenal catheter and a gastric fistula tube. After completion of the operations, the rat was placed in a Ballmann cage, and pentagastrin was continuously injected at 15 μg/kg/hr through the caudal vein. Each test compound was formed into a suspension by using a 0.5% carboxymethylcellulose sodium solution (hereinafter called “the solvent”). Upon an elapsed timeof 1 hour from the initiation of the injection of pentagastrin, the solvent or the test compound was administered through the intraduodenal catheter. The acidity of sampled gastric juice was measured using an autotitrater, and a product of the acidity and the amount of the gastric juice was recorded as an acid output. […] [formula]

CCK-A receptor = molecular target: T2, CCK-A receptor (Cavia porcellus, UniProt Q63931); experiment: CCK-A receptor binding test ([3H]L-364,718, guinea pig pancreas); conditions: [3H]L-364,718 0.2 nM, guinea pig pancreas membranes, 25° C., 2 hours; read-out: binding inhibition constant (Ki value)
T2 construct: The homogenate was provided as a receptor sample; from tissue; host or cells: guinea pig pancreas membrane homogenate
T2 sequence (Q63931 1-430): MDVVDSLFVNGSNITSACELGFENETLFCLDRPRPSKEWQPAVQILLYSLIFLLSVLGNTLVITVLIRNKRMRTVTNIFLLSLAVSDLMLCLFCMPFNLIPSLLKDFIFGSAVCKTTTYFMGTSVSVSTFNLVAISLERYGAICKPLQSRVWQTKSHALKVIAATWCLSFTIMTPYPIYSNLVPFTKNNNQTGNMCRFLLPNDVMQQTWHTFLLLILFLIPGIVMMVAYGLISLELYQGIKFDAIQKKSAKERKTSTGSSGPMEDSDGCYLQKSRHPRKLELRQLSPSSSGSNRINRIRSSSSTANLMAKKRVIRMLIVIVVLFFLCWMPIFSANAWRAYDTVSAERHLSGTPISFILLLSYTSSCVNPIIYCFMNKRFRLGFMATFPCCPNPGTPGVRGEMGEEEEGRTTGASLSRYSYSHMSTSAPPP
Experimental: <CCK-A Receptor Binding Test>
From a male Hartley strain guinea pig, the pancreas was removed. The pancreas was homogenized with 10 mM PIPES buffer (pH 6.5, hereinafter called “the solvent”) in an amount 40 times as much as the weight of the pancreas. The solvent contained EGTA (1 mM), magnesium chloride (30 mM), bacitracin (0. 02%) , soybean trypsin inhibitor (0.02%), and sucrose (0.3 M). After filtered through gauze, the homogenate was centrifuged under 50,000 g for 10 minutes. To the resulting pellet, the solvent was added again in an amount as much as the pellet, followed by centrifugation. To the thus-obtained pellet the solvent was added in an amount 40 times as much as the pellet, and the pellet was homogenized. […]
As a binding experiment, a solution (50 μL) of [^3H]L-364,718 (devazepide), said solution having a final concentration of 0.2 nM, and the receptor sample (protein content: 50 μg/tube) (900 μL) were added to the solvent, an L-364,718 solution of a final concentration of 1 μM or a test compound solution (50 μL), followed by a reaction at 25° C. for 2 hours. […] ACS-II scintillator was added to the filter and, after the filter was left over for 24 hours, the radioactivity concentration on the filter was measured by a liquid scintillation counter. […] From the specific binding of [^3H]L-364,718, the binding inhibition constant (Ki value) of the compound was calculated.

[2] = test system: pentagastrin-stimulated acid secretion; experiment: Inhibition test on pentagastrin-stimulated acid secretion in beagles with Heidenhain pouch; type: in vivo, beagle; conditions: 1 mg/kg oral (gelatin capsules), acid output 1st to 4th hour after administration
Experimental: <Inhibition Test on Pentagastrin-stimulated Acid Secretion in Beagles with Heidenhain Pouch>
Male beagles with Heidenhain pouch formed beforehand were used. Pentagastrin was continuously and intravenously injected at 4 μg/kg/hr. Upon an elapsed time of 3 hours after the initiation of the continuous injection of pentagastrin, each test compound was filled in gelatin capsules and orally administered. The acidity of sampled gastric juice was measured using an autotitrater, and a product of the acidity and the amount of the gastric juice was recorded as an acid output. Supposing -that an acid output during 1 hour preceding the administration was 100%, acid output over 3 hours ranging from the 1st hour to the 4th hour after the administration of the test compound were converted into percentages (acid output percentages). Based on such acid output percentages, the acid output inhibition rate of each beagle was determined using the below-described formula. An average of such acid output inhibition rates was recorded as the acid inhibition rate of the compound. […] [formula]

| Ki (CCK-B receptor) [µM] | Ki (CCK-A receptor) [µM] | melting point | SMILES | acid secretion inhibition ([1]; 0.3 mg/kg intraduodenal) [%] | acid secretion inhibition [2] [%] | acid secretion inhibition ([1]; 0.1 mg/kg intraduodenal) [%] |
| --- | --- | --- | --- | --- | --- | --- |
| 0.00074 | 0.438 | – | CC(C)(C)C(=O)CN1C(=O)[C@H](NC(=O)Nc2cccc(C(C)(C)C(=O)O)c2)CN(C2CCCCC2)c2ccccc21 [Example 2, (R)-(−)-2-[3-[3-(1-tert-butylcarbonylmethyl-2-oxo-5-cyclohexyl-1,3,4,5-tetrahydro-2H-1,5-benzodiazepin-3-yl)ureido]phenyl]-2-methylpropionic acid] | 72.7 | 77.9 | – |
| – | – | 215 to 216 °C (dec.) | CC(C)(C)C(=O)CN1C(=O)C(NC(=O)Nc2cccc(C(C)(C)C(=O)O)c2)CN(C2CCCCC2)c2ccccc21 (racemic) [Example 1, (±)-2-[3-[3-(1-tert-butylcarbonylmethyl-2-oxo-5-cyclohexyl-1,3,4,5-tetrahydro-2H-1,5-benzodiazepin-3-yl)ureido]phenyl]-2-methylpropionic acid] | – | – | – |
| – | – | – | CC(C)(C)C(=O)CN1C(=O)[C@H](NC(=O)Nc2cccc(C(C)(C)C(=O)O)c2)CN(C2CCCCC2)c2ccccc21 [Example 5, sodium (R)-2-[3-[3-(1-tert-butylcarbonylmethyl-2-oxo-5-cyclohexyl-1,3,4,5-tetrahydro-2H-1,5-benzodiazepin-3-yl)ureido]phenyl]-2-methylpropionate] | 79.3 | – | 48.4 |
